US10463671B2, “Combination therapy for treating cancer” (Epizyme, Inc., priority 2013, dated 2019)

Columns and labels:
[1] = test system: glucocorticoid signaling genes in OCI-LY19 cells; test: RT2 Glucocorticoid Signaling PCR array; type: cell-based; details: compared to DMSO; OCI cell line; 4 days
Procedure: (§1) Gene expression was normalized to array's B2M and fold change compared to DMSO was calculated using the ΔΔCt method.

[2] = test system: glucocorticoid signaling genes in RL cells; test: RT2 Glucocorticoid Signaling PCR array; type: cell-based; details: 4 days, 1 μM Cpd44, Pred 10-fold below 4-day IC50
Procedure: as §1

CCN(c1cc(-c2ccc(CN3CCOCC3)cc2)cc(C(=O)NCc2c(C)cc(C)[nH]c2=O)c1C)C1CCOCC1 [Compound 44]
ΔΔCT, ADARB1 [1]: −0.788 | ΔΔCT, ARID5B [1]: 0.231 | ΔΔCT, PDCD7 [1]: 0.024 | ΔΔCT, SPHK1 [1]: 0.018 | ACTB Ct value [2]: 15.664 | ACTB ΔCT (B2M) [2]: −3.694 | ADARB1 Ct value [2]: 26.650 | ADARB1 ΔCT (B2M) [2]: 7.292 | AFF1 Ct value [2]: 26.820 | AFF1 ΔCT (B2M) [2]: 7.462 | AK2 Ct value [2]: 20.270 | AK2 ΔCT (B2M) [2]: 0.912 | AMPD3 Ct value [2]: 27.191 | AMPD3 ΔCT (B2M) [2]: 7.833 | ANGPTL4 Ct value [2]: 29.820 | ANGPTL4 ΔCT (B2M) [2]: 10.462 | ANXA4 Ct value [2]: 24.395 | ANXA4 ΔCT (B2M) [2]: 5.037 | ARID5B Ct value [2]: 27.333 | ARID5B ΔCT (B2M) [2]: 7.975 | ASPH Ct value [2]: 23.466 | ASPH ΔCT (B2M) [2]: 4.108 | ATF4 Ct value [2]: 18.269 | ATF4 ΔCT (B2M) [2]: −1.089 | B2M Ct value [2]: 19.358 | B2M ΔCT (B2M) [2]: 0.000 | BCL6 Ct value [2]: 20.289 | BCL6 ΔCT (B2M) [2]: 0.931 | CEBPA Ct value [2]: 36.511 | CEBPA ΔCT (B2M) [2]: 17.153 | CEBPB Ct value [2]: 23.765 | CEBPB ΔCT (B2M) [2]: 4.407 | COL4A2 Ct value [2]: 31.782 | COL4A2 ΔCT (B2M) [2]: 12.424 | CREB1 Ct value [2]: 23.217 | CREB1 ΔCT (B2M) [2]: 3.859 | CREB3 Ct value [2]: 24.178 | CREB3L4 Ct value [2]: 23.500 | CREB3L4 ΔCT (B2M) [2]: 4.142 | CREB3 ΔCT (B2M) [2]: 4.820 | CYB561 Ct value [2]: 38.452 | CYB561 ΔCT (B2M) [2]: 19.094 | DDIT4 Ct value [2]: 22.679 | DDIT4 ΔCT (B2M) [2]: 3.321 | DUSP1 Ct value [2]: 25.422 | DUSP1 ΔCT (B2M) [2]: 6.064 | EDN1 Ct value [2]: 31.815 | EDN1 ΔCT (B2M) [2]: 12.457 | EHD3 Ct value [2]: 24.572 | EHD3 ΔCT (B2M) [2]: 5.214 | ERRFI1 Ct value [2]: 31.705 | ERRFI1 ΔCT (B2M) [2]: 12.347 | FKBP5 Ct value [2]: 21.757 | FKBP5 ΔCT (B2M) [2]: 2.399 | FOSL2 Ct value [2]: 30.761 | FOSL2 ΔCT (B2M) [2]: 11.403 | GAPDH Ct value [2]: 15.720 | GAPDH ΔCT (B2M) [2]: −3.638 | GDPD1 Ct value [2]: 27.394 | GDPD1 ΔCT (B2M) [2]: 8.036 | GHRHR Ct value [2]: 37.546 | GHRHR ΔCT (B2M) [2]: 18.188 | GLUL Ct value [2]: 28.738 | GLUL ΔCT (B2M) [2]: 9.380 | GOT1 Ct value [2]: 22.584 | GOT1 ΔCT (B2M) [2]: 3.226 | H6PD Ct value [2]: 25.012 | H6PD ΔCT (B2M) [2]: 5.654 | HNRPLL Ct value [2]: 22.844 | HNRPLL ΔCT (B2M) [2]: 3.486 | HPRT1 Ct value [2]: 22.013 | HPRT1 ΔCT (B2M) [2]: 2.655 | IL1RN Ct value [2]: 28.405 | IL1RN ΔCT (B2M) [2]: 9.047 | IL6R Ct value [2]: 29.246 | IL6R ΔCT (B2M) [2]: 9.888 | IL10 Ct value [2]: 31.498 | IL10 ΔCT (B2M) [2]: 12.140 | KLF13 Ct value [2]: 22.854 | KLF13 ΔCT (B2M) [2]: 3.496 | MERTK Ct value [2]: 30.691 | MERTK ΔCT (B2M) [2]: 11.333 | MT1E Ct value [2]: 34.215 | MT1E ΔCT (B2M) [2]: 14.857 | MT2A Ct value [2]: 24.279 | MT2A ΔCT (B2M) [2]: 4.921 | NFKBIA Ct value [2]: 23.710 | NFKBIA ΔCT (B2M) [2]: 4.352 | NR3C1 Ct value [2]: 22.616 | NR3C1 ΔCT (B2M) [2]: 3.258 | PDCD7 Ct value [2]: 24.406 | PDCD7 ΔCT (B2M) [2]: 5.048 | PDP1 Ct value [2]: 25.387 | PDP1 ΔCT (B2M) [2]: 6.029 | PER1 Ct value [2]: 25.492 | PER1 ΔCT (B2M) [2]: 6.134 | PER2 Ct value [2]: 24.378 | PER2 ΔCT (B2M) [2]: 5.020 | PIK3R1 Ct value [2]: 23.908 | PIK3R1 ΔCT (B2M) [2]: 4.550 | PLEKHF1 Ct value [2]: 30.520 | PLEKHF1 ΔCT (B2M) [2]: 11.162 | POU2F1 Ct value [2]: 24.243 | POU2F1 ΔCT (B2M) [2]: 4.885 | POU2F2 Ct value [2]: 21.769 | POU2F2 ΔCT (B2M) [2]: 2.411 | RASA3 Ct value [2]: 26.279 | RASA3 ΔCT (B2M) [2]: 6.921 | RGS2 Ct value [2]: 25.721 | RGS2 ΔCT (B2M) [2]: 6.363 | RPLP0 Ct value [2]: 14.837 | RPLP0 ΔCT (B2M) [2]: −4.521 | SESN1 Ct value [2]: 24.425 | SESN1 ΔCT (B2M) [2]: 5.067 | SGK1 Ct value [2]: 26.262 | SGK1 ΔCT (B2M) [2]: 6.904 | SLC19A2 Ct value [2]: 25.536 | SLC19A2 ΔCT (B2M) [2]: 6.178 | SNTA1 Ct value [2]: 25.554 | SNTA1 ΔCT (B2M) [2]: 6.196 | SPHK1 Ct value [2]: 31.119 | SPHK1 ΔCT (B2M) [2]: 11.761 | SPSB1 Ct value [2]: 26.285 | SPSB1 ΔCT (B2M) [2]: 6.927 | STAT5A Ct value [2]: 22.769 | STAT5A ΔCT (B2M) [2]: 3.411 | STAT5B Ct value [2]: 22.683 | STAT5B ΔCT (B2M) [2]: 3.325 | TBL1XR1 Ct value [2]: 21.663 | TBL1XR1 ΔCT (B2M) [2]: 2.305 | TNF Ct value [2]: 24.712 | TNF ΔCT (B2M) [2]: 5.354 | TNFAIP3 Ct value [2]: 26.896 | TNFAIP3 ΔCT (B2M) [2]: 7.538 | TSC22D3 Ct value [2]: 23.300 | TSC22D3 ΔCT (B2M) [2]: 3.942 | USP2 Ct value [2]: 21.420 | USP2 ΔCT (B2M) [2]: 2.062 | USP54 Ct value [2]: 26.364 | USP54 ΔCT (B2M) [2]: 7.006 | VDR Ct value [2]: 27.736 | VDR ΔCT (B2M) [2]: 8.378 | ZFP36 Ct value [2]: 24.374 | ZFP36 ΔCT (B2M) [2]: 5.016 | ZHX3 Ct value [2]: 29.785 | ZHX3 ΔCT (B2M) [2]: 10.427 | ZNF281 Ct value [2]: 23.667 | ZNF281 ΔCT (B2M) [2]: 4.309 | AFF1 ΔΔCT ([2]; vs DMSO): −2.006 | ATF4 ΔΔCT ([2]; vs DMSO): 0.003 | CEBPB ΔΔCT ([2]; vs DMSO): −0.004 | CREB3L4 ΔΔCT ([2]; vs DMSO): −0.760 | HNRPLL ΔΔCT ([2]; vs DMSO): 0.309 | LOX ΔΔCT ([2]; vs DMSO): −0.580 | NFKBIA ΔΔCT ([2]; vs DMSO): 0.854 | NR3C1 ΔΔCT ([2]; vs DMSO): 0.067 | PDCD7 ΔΔCT ([2]; vs DMSO): 0.006 | PLEKHF1 ΔΔCT ([2]; vs DMSO): 0.050 | POU2F1 ΔΔCT ([2]; vs DMSO): −0.027 | POU2F2 ΔΔCT ([2]; vs DMSO): −0.584 | RASA3 ΔΔCT ([2]; vs DMSO): −0.009 | SNTA1 ΔΔCT ([2]; vs DMSO): 0.040 | STAT5A ΔΔCT ([2]; vs DMSO): 0.001 | STAT5B ΔΔCT ([2]; vs DMSO): −0.094 | ZFP36 ΔΔCT ([2]; vs DMSO): −0.036 | ZNF281 ΔΔCT ([2]; vs DMSO): 0.046
